Each structure is given as a SMILES string. Starred links: 1 amine or outer side, 2 acyl side, 3 side chain; linkers in the order of their positions; H or OH if unused. Positions of bridges follow the written chain, without caps; N, C: chain ends. Non-standard residues stand in square brackets, D forms with d. Residues, ends and D or L forms follow the SMILES beside them. *: point of attachment. hPhe(3,5-F2-4-CF3) = N[C@@H](CCc1cc(F)c(C(F)(F)F)c(F)c1)C(=O)O; hPhe(3-Cl-4-CF3) = N[C@@H](CCc1ccc(C(F)(F)F)c(Cl)c1)C(=O)O; NMePhe(4-CF3) = CN[C@@H](Cc1ccc(C(F)(F)F)cc1)C(=O)O; hPhe(4-CF3) = N[C@@H](CCc1ccc(C(F)(F)F)cc1)C(=O)O; ACHC(1R,2R) = O=C([C@@H]1CCCC[C@H]1N[*:1])[*:2]; NEtPhe(4-Me) = CCN[C@@H](Cc1ccc(C)cc1)C(=O)O; NMePhe(4-Cl) = CN[C@@H](Cc1ccc(Cl)cc1)C(=O)O; NMePhe(4-F) = CN[C@@H](Cc1ccc(F)cc1)C(=O)O; hPhe(4-Cl) = N[C@@H](CCc1ccc(Cl)cc1)C(=O)O; NMedβ3hAla = C[C@H](CC(=O)[*:2])N(C)[*:1]; NMeGly(cPent) = CN[C@H](C(=O)O)C1CCCC1; Pro(4,4-F2) = O=C(O)[C@@H]1CC(F)(F)CN1; NMeCha = CN[C@@H](CC1CCCCC1)C(=O)O; NMeChg = CN[C@H](C(=O)O)C1CCCCC1; NMeI = CC[C@H](C)[C@H](NC)C(=O)O; NMeD = CN[C@@H](CC(=O)O)C(=O)O; NMeL = CN[C@@H](CC(C)C)C(=O)O; NMeV = CN[C@H](C(=O)O)C(C)C; d(β3hA) = C[C@@H](N)CC(=O)O; NMeS = CN[C@@H](CO)C(=O)O; NMeA = CN[C@@H](C)C(=O)O; Piperidide = C1CCN(*)CC1; Pyrrolidide = C1CCN(*)C1; dNMeA = CN[C@H](C)C(=O)O; Ac5c = NC1(C(=O)O)CCCC1; Aze = O=C(O)[C@@H]1CCN1; Ac4c = NC1(C(=O)O)CCC1; CH2CMe2OH = CC(C)(O)C*; Sar = CNCC(=O)O

For this assay, the target named is T1, Kras and SOS1 (biotin-tagged human Kras loaded with GDP, His-tagged human SOS1) (Homo sapiens, UniProt P01116, G12D).
T1 construct: made in house; host or cells: E. coli (stated for Kras only)
T1 sequence (P01116 1-188 isoform P01116-2 G12D): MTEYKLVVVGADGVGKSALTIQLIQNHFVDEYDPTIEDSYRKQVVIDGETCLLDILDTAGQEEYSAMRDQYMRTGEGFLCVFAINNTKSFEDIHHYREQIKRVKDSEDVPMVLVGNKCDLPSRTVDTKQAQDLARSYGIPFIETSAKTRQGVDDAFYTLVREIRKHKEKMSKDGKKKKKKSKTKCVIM
Description: Protein-protein interaction inhibition between Kras and SOS1 (KrasGl2D-SOS PPI) using AlphaScreen. Format: binding. Particulars: AlphaScreen; biotin-tagged human Kras loaded with GDP, His-tagged human SOS1; read-out: KRAS G12D-SOS PPI IC50. Summed up: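 AlphaScreen format: Ni donor beads capture His-SOS1, streptavidin acceptor beads capture biotinylated Kras (E. coli-expressed, GDP-loaded post-purification). Excite 680 nm, read 520-620 nm.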
In general terms: Alpha assays give light when donor and acceptor beads are brought close together.

A word on the IC50: it is the midpoint of a concentration-inhibition curve. For `CC[C@H](C)[C@@H]1NC(=O)[C@H](CC(C)C)NC(=O)[C@@H]2CCCC[C@H]2NC(=O)[C@H](C(C)C)N(C)C(=O)C2(CCCC2)NC(=O)[C@@H]2CCCN2C(=O)[C@H](CCc2ccc(C(F)(F)F)c(Cl)c2)NC(=O)CN(C)C(=O)[C@H](CC2CCCCC2)N(C)C(=O)CN(C)C(=O)CN(C)C1=O` [Compound 569] (cyclo([Ac5c][NMeV][ACHC(1R,2R)]LI[Sar][Sar][NMeCha][Sar][hPhe(3-Cl-4-CF3)]P)), the half-inhibitory concentration (IC50) was 0.073 µM.
Next, `CC[C@H](C)[C@@H]1NC(=O)[C@H](C2CCCC2)N(C)C(=O)C[C@@H](C)NC(=O)[C@H](C(C)C)N(C)C(=O)C2(CCCC2)NC(=O)[C@@H]2CCCN2C(=O)[C@H](CCc2ccc(C(F)(F)F)c(Cl)c2)NC(=O)CN(C)C(=O)[C@H](CC2CCCCC2)N(C)C(=O)[C@@H]2CCN2C(=O)[C@H](C)N(C)C1=O` [Compound 570] (cyclo([Ac5c][NMeV][d(β3hA)][NMeGly(cPent)]I[NMeA][Aze][NMeCha][Sar][hPhe(3-Cl-4-CF3)]P)): 0.027 µM; `CC[C@H](C)[C@@H]1NC(=O)[C@H](CC(C)C)N(C)C(=O)C[C@@H](C(=O)N(C)C)N(C)C(=O)[C@H]([C@@H](C)CC)N(C)C(=O)C2(CCCC2)NC(=O)[C@@H]2CCCN2C(=O)[C@H](CCc2cc(F)c(C(F)(F)F)c(F)c2)NC(=O)CN(C)C(=O)[C@H](Cc2ccc(C)cc2)N(CC)C(=O)[C@@H]2CCN2C(=O)[C@H](C)N(C)C1=O` [Compound 571] ([NMeL]I[NMeA][Aze][NEtPhe(4-Me)][Sar][hPhe(3,5-F2-4-CF3)]P[Ac5c][NMeI][NMeD]-NMe2; lactam N-11): 0.00083 µM.
As for `CC[C@H](C)[C@@H]1NC(=O)[C@H](CC(C)C)N(C)C(=O)C[C@@H](C)NC(=O)[C@H](C(C)C)N(C)C(=O)C2(CCCC2)NC(=O)[C@@H]2CCCN2C(=O)[C@H](CCc2ccc(Cl)cc2)NC(=O)CN(C)C(=O)[C@H](CC2CCCCC2)N(C)C(=O)CN(C)C(=O)CN(C)C1=O` [Compound 576] (cyclo([Ac5c][NMeV][d(β3hA)][NMeL]I[Sar][Sar][NMeCha][Sar][hPhe(4-Cl)]P)), the figure is 0.23 µM; as for `CC[C@H](C)[C@@H]1NC(=O)[C@H](CC(C)C)N(C)C(=O)C[C@@H](C(=O)N2CCCCC2)N(C)C(=O)[C@H](CC2CCCCC2)N(C)C(=O)C2(CCCC2)NC(=O)[C@@H]2CCCN2C(=O)[C@H](CCc2ccc(C(F)(F)F)c(Cl)c2)NC(=O)CN(C)C(=O)[C@H](CC2CCCCC2)N(C)C(=O)CN(C)C(=O)CN(C)C1=O` [Compound 577] ([NMeL]I[Sar][Sar][NMeCha][Sar][hPhe(3-Cl-4-CF3)]P[Ac5c][NMeCha][NMeD]-Piperidide; lactam N-11), 0.021 µM; as for `CC[C@H](C)[C@@H]1NC(=O)[C@H](CC2CCCCC2)N(C)C(=O)C[C@@H](C)NC(=O)[C@H](CC(C)C)N(C)C(=O)C2(CCCC2)NC(=O)[C@@H]2CCCN2C(=O)[C@H](CCc2ccc(C(F)(F)F)cc2)NC(=O)CN(C)C(=O)[C@H](Cc2ccc(Cl)cc2)N(C)C(=O)CN(C)C(=O)CN(C)C1=O` [Compound 578] (cyclo([Ac5c][NMeL][d(β3hA)][NMeCha]I[Sar][Sar][NMePhe(4-Cl)][Sar][hPhe(4-CF3)]P)), 0.12 µM.
As for `CC[C@H](C)[C@@H]1NC(=O)[C@H](CC(C)C)N(C)C(=O)C[C@@H](C)N(C)C(=O)[C@H](C2CCCCC2)N(C)C(=O)C2(CCC2)NC(=O)[C@@H]2CC(F)(F)CN2C(=O)[C@H](CCc2cc(F)c(C(F)(F)F)c(F)c2)NC(=O)CN(C)C(=O)[C@H](Cc2ccc(C(F)(F)F)cc2)N(C)C(=O)CN(C)C(=O)CN(C)C1=O` [Compound 579] (cyclo([Ac4c][NMeChg][NMedβ3hAla][NMeL]I[Sar][Sar][NMePhe(4-CF3)][Sar][hPhe(3,5-F2-4-CF3)][Pro(4,4-F2)])), the figure is 0.017 µM; as for `CC[C@H](C)[C@@H]1NC(=O)[C@H](C)N(C)C(=O)C[C@@H](C(=O)N2CCCC2)NC(=O)[C@H](CC(C)C)N(C)C(=O)[C@H](COCC(C)(C)O)N(C)C(=O)[C@H](CC(C)C)NC(=O)[C@H](CCc2ccc(C(F)(F)F)cc2)NC(=O)CN(C)C(=O)[C@H](Cc2ccc(Cl)cc2)N(C)C(=O)CN(C)C(=O)CN(C)C1=O` [Compound 582] ([NMeA]I[Sar][Sar][NMePhe(4-Cl)][Sar][hPhe(4-CF3)]L[NMeS](CH2CMe2OH)[NMeL]D-Pyrrolidide; lactam N-11), 0.024 µM.
In the case of `CC[C@H](C)[C@@H]1NC(=O)[C@H](C)N(C)C(=O)C[C@@H](C)NC(=O)[C@H](C2CCCC2)N(C)C(=O)C2(CCCC2)NC(=O)[C@@H]2CCCN2C(=O)[C@H](CCc2ccc(C(F)(F)F)c(Cl)c2)NC(=O)[C@@H](C)N(C)C(=O)[C@H](Cc2ccc(F)cc2)N(C)C(=O)[C@@H]2CCN2C(=O)[C@H](C)N(C)C1=O` [Compound 584] (cyclo([Ac5c][NMeGly(cPent)][d(β3hA)][NMeA]I[NMeA][Aze][NMePhe(4-F)][dNMeA][hPhe(3-Cl-4-CF3)]P)), the concentration for half-maximal inhibition (IC50) worked out at 0.031 µM.

Values taken from patent publication US12371454B2, “Cyclic peptide compound having Kras inhibitory action” (priority 2019, dated 2025).
